From patent US20040204746A1, “Enhanced bioavailability of nutrients, pharmaceutical agents, and other bioactive substances through laser resonant homogenization or modification of molecular shape or crystalline form” (priority 1999, published 2004)

Key:
murine macrophages [1] = test: Nitrite (nitric oxide) production by LPS-stimulated murine macrophages; format: cell-based; conditions: 24 hours; for nitric oxide byproducts compared with control untreated Arg #4: 120 mcg/ml; for Nitrites: determined from optical density; for Nitrites / Mean O.D. ± S.D.: 120 mcg/ml arginine, LPS 1 ng/ml; for Mean O.D. ± S.D.: optical density at 540 nm
Method: Paracelsian in Ithaca, N.Y., an outside independent lab, performed the following bioassays. Each arginine sample was added to 12 wells of murine macrophages to achieve a concentration of 120 mcg/ml. This is the estimated serum concentration for a 70 Kg person after ingesting a 6-gram serving of arginine, a level observed in numerous clinical studies to be associated with a wide range of physiologic benefits. LPS at 1 ng/ml was added to each well and the cells were incubated for 24 hours. The nitrite concentration in each well's supernatant was determined 24 hours after initiation of treatment as a relative measure of nitric oxide production.
The results are listed in order of relative nitrite production, from greatest to least. The first column is the Arg #, the second the mean plus or minus the standard deviation of the optical density measurement at 540 nm, a measure of nitrite concentration, and the third column the relative production of nitrites expressed in micrograms per ml as determined from optical density.

[2] = tested on: person with relapsing lupus; test: Case report: relapsing lupus treated with the methylation formula; format: in vivo, human; conditions: before the formula
Source text: The exemplary patient had suffered with relapsing lupus for several years. At the time of entry into the methylation formula studies of EXAMPLE 6, they had experienced a relapse of severe disease for several months.
Their disease was characterized by exquisitely tender blistering and ulcerating lesions on their hands and feet that made it difficult to walk or open a cabinet door without severe pain. Their skin was pallid, they were extremely fatigued with a chronic low energy state, and had suffered extensive hair loss. Their sedimentation rate, a marker for systemic inflammation, was highly elevated at 99, whereas a normal level would be 0-30. […] They declined the use of corticosteroids due to severe treatment side effects during a prior relapse.
The subject was randomized to the placebo control group and for 3 months had no improvement in condition. In the second phase of the study, they were placed on a high dose of the methylation formula of 6 grams of laser treated betaine plus cofactors daily. […]
The subject continued on a lower dose of the laser treated methylation formula for 5 more months, reduced to 1-2 grams of the laser treated betaine plus cofactors. […] At the end of fifth month of lower dose treatment, their sedimentation rate had dropped to the very low normal value of 1, the lowest level ever recorded for them.

[3] = tested on: subject with osteoarthritis; test: Pilot test: blood SAMe level and knee pain in a subject with osteoarthritis; format: in vivo, human
Source text: As a pilot test, a subject with osteoarthritis had blood SAMe levels measured while taking SAMe and then while taking a betaine formulation. […] On this level of SAMe ingestion for three months, their blood SAMe level was 4.9 (the normal range for this lab is 4.2-8.2). At this time, SAMe was discontinued and they started a methylation formula with one gram of laser treated betaine plus laser treated metabolic cofactors. The betaine and metabolic co-factors were in the same ratios as in the double blind clinical study formula to be described below.

[4] = 1600 mg per day, cited from earlier work
liver SAMe = conditions: animal studies; cited from earlier work
[5] = tested on: subjects that had just survived a first myocardial infarction; conditions: betaine 9 grams daily plus vitamin B12, liver extract, creatine precursor; placebo 25%; cited from earlier work
murine macrophages [6] = test: TNF-alpha production by Echinacea-stimulated murine macrophages (ELISA); format: cell-based; conditions: 24 hours, samples at 20 mg/ml with Echinacea
Method: An independent outside lab, Paracelsian in Ithaca, N.Y., performed the following bioassays. A standardized Echinacea sample alone or with 20 mg/ml of Samples 1, 2, or 3 were incubated in the tissue culture media of triplicate wells of murine macrophages for 24 hours after Echinacea stimulation and then assayed for tumor necrosis factor-alpha (TNF-alpha) production in triplicate ELISA wells. Positive controls with lipopolysaccharide (LPS) at 1 ng/ml and negative controls were also assayed in the same manner.
Those skilled in the art will appreciate that the use of murine macrophages simulates the body's immune response. Adding the herb Echinacea provides a similar response to that of an immune system that is being irritated. A TNF-alpha reading is a good marker for the extent of inflammation. Thus a substance that causes a significant increase in TNF-alpha in the macrophages can be expected to create substantial inflammation in a human body—especially a body suffering from an autoimmune disease such as inflammatory bowel disease, as well as other physiological problems such as systemic lupus erythematosus, rheumatoid arthritis and food allergies.

Molecule	nitric oxide byproducts compared with control untreated Arg #4 (murine macrophages [1])	Nitrites (murine macrophages [1])	Mean O.D. ± S.D. (murine macrophages [1])	other results
N=C(N)NCCC[C@H](N)C(=O)O [Arg #1, L-arginine]	statistically significantly less nitric oxide byproducts	10.6 micrograms per ml	.215 ± .007	
N=C(N)NCCC[C@H](N)C(=O)O [Arg #2, L-arginine]	statistically significantly less nitric oxide byproducts	10.8 micrograms per ml	.219 ± .008	
N=C(N)NCCC[C@H](N)C(=O)O [Arg #3, L-arginine]	statistically significantly more nitric oxide byproducts	12.0 micrograms per ml	.232 ± .010	
N=C(N)NCCC[C@H](N)C(=O)O [Arg #4, L-arginine]		11.4 micrograms per ml	.224 ± .006	
CCN(CCO)CCCC(C)Nc1ccnc2cc(Cl)ccc12 (stereo not shown) [Plaquenil]				relief of lupus symptoms [2]: did little to relieve their symptoms
C[S+](CC[C@H](N)C(=O)O)C[C@H]1O[C@@H](n2cnc3c(N)ncnc32)[C@H](O)[C@@H]1O (stereo partly shown) [SAMe, S-adenosyl-methionine]				blood SAMe level ([3]; 800 mg of SAMe daily for three months, normal range 4.2-8.2): 4.9; knee pain ([3]; osteoarthritis): moderate degree of relief; side effects [4]: essentially free of side effects; onset of anti-depressant effects ([4]; tricyclics 4-6 weeks): within one week
C[N+](C)(C)CC(=O)O [betaine, N,N,N-trimethylglycine]				rise of liver SAMe levels (liver SAMe): up to fourfold; mortality after one year [5]: no mortality
lipopolysaccharide [LPS 1 ng/ml Control]				TNF-alpha ± S.D. (murine macrophages [6]): 2863 ± 185.7
